Results as given in US20040198738A1, “Preventives or remedies for diseaes caused by enos expression” (priority 2002, published 2004).

Legend:
[1] = from treatment for Parkinson's disease in Japanese Patent Laid-Open No. 59-25323; cited from earlier work
[2] = Acute toxicity of BH4 dihydrochloride in rat, oral administration; type: in vivo
Text: The active ingredient used in the present invention is most preferably (6R)-L-erythro-5,6,7,8-tetrahydrobiopterin (BH4) or a salt thereof. However, analogues thereof such as (6R, S)-5,6,7,8-tetrahydrobiopterin, 1′,2′-diacetyl-5,6,7,8-tetrahydrobiopterin, sepiapterin, 6-methyl-5,6,7,8-tetrahydropterin, 6-hydroxymethyl-5,6,7,8-tetrahydropterin, 6-phenyl-5,6,7,8-tetrahydropterin, or a salt thereof, may also be used. However, needless to say, BH4 that is a natural substance existing in an organism is preferable. […] In addition, as is clear from the description of a treatment for Parkinson's disease in Japanese Patent Laid-Open No. 59-25323, the toxicity of (6R, S)-5,6,7,8-tetrahydrobiopterin, that is, non-optically pure substance, is weak. Accordingly, this compound can also be used for the treatment in the present invention. Compounds represented by the formula (I) other than the above described compounds have almost no acute toxicity.

[3] = system: superoxide in plaque area of aorta of ApoE-KO/eNOS-Tg mice; assay: Production of superoxide in excised aorta (MCLA chemiluminescence); type: in vivo, mouse; settings: BH4 added high cholesterol diet for 8 weeks, 12 weeks old mice; vs non-administration; FIG. 4; p<0.01
Procedure: Groups were prepared, each of which consisted of 6 to 8 mice (12 weeks old, ApoE-KO/eNOS-Tg) fed on BH4 added or BH4 non-added high cholesterol diet for 8 weeks in the same manner as in Example 12. The aorta was excised from these mice, peripheral tissues were eliminated, and the remaining portion was mounted on a black silicone dish filled with PBS with pH 7.4. The sample was placed in a light-shielding box to avoid interference of external light, and thereafter, MCLA was added to the chamber to the final concentration of […]. Thereafter, light emission generated as a result of the reaction between MCLA (2-methyl-6-(4-methoxyphenyl)-3,7-dihydroimidazol[1,2-a]pyrazin-3-one-hydrochloride) and superoxide anion was measured for 5 minutes. This measurement was repeated 3 times.
The light emission data was served in a computer, and the obtained nonlinear gray scale images were converted into pseudocolor images. The intensity of chemiluminescence due to superoxide was analyzed using WinLight 32 software. The plaque area was defined as an area that was stained with Sudan III. Approximately 10 plaque areas and 10 non-plaque areas ([…]) were randomly selected from each mouse, followed by measurement. The background level was subtracted from each chemiluminescent signal intensity. […] The results are shown as relative values. […]

ApoE-KO/eNOS-Tg mice = assay: Sclerotic lesion area of aorta (Sudan III staining, image analysis) in mice fed high cholesterol diet; type: in vivo, mouse; settings: BH4 10 mg/kg/day added to high cholesterol diet, FIG. 3
Text: 37 mice (ApoE-KO/eNOS-Tg) produced in Example 10 were ablactated at the age of 4 weeks, and then fed on high cholesterol diet (1.25% cholesterol, 7.5% cacao butter, 7.5% casein, and 0.5% sodium cholate) for 12 weeks.
Thereafter, the 16-week-old mice were anesthetized with pentobarbital, and the aorta was perfused with a physiological saline solution containing 10 U/ml heparin. Thereafter, the aorta corresponding to the portion from the center of the left ventricle to the bifurcation portion of the iliac artery was excised and fixed with 4% paraformaldehyde overnight. Surrounding tissues were eliminated from the distal portion (from the aortic arch to the bifurcation portion of the iliac artery) of the excised aorta. The aorta was longitudinally opened and fixed on a dish coated with silicone, and then stained with Sudan III. The obtained light microscope image was analyzed using NIH 1.61 Imaging Software. The lesion formation area was expressed by lesion area/the total area of aorta. In the figure, * denotes p<0.0001 with respect to ApoE-KO male, and the cross denotes p<0.001 with respect to ApoE-KO female.
6 to 8 mice (ApoE-KO/eNOS-Tg) produced in Example 10 were used per group. BH4 non-administration groups were fed on the high cholesterol diet (refer to Example 10), and BH4 administration groups were fed on the high cholesterol diet to which BH4 was added at 10 mg/kg/day. […]

[4] = system: NO from aortic endothelium of ApoE-KO/eNOS-Tg mice; assay: Production of NO in excised aorta (DAF-2 DA fluorescence, acetylcholine stimulated); type: in vivo, mouse; settings: 12-week-old mice, high cholesterol diet for 8 weeks, BH4 administered vs not administered; FIG. 5; p<0.01
Text: The aorta containing the portion from the aortic arch to the bifurcation portion of the iliac artery was excised from each of 12-week-old mice (ApoE-KO/eNOS-Tg) fed on a high cholesterol diet for 8 weeks. Immediately thereafter, surrounding portions were eliminated in PBS with pH 7.4. The sample was mounted on a black dish filled with a phosphate buffer (pH 7.4) containing 1.5 mmol/L calcium chloride, and it was then placed in a light-shielding box to avoid interference of external light.
Diaminofluorescein-2 diacetate (DAF-2 DA) was added thereto to the final concentration of 10 μmol/L. Then, the sample was left at ambient temperature for 5 minutes, and thereafter, it was excited with 485 nm blue light. The fluorescence generated as a result of the reaction between DAF-2 DA and NO was detected, using a luminograph equipped with a band filter with a center of 532 nm, and measurement was carried out for 1 second at an intensity of wave length of 515 nm. To examine the production of NO from the aortic endothelium, the sample was left in 1 μmol/L acetylcholine solution for 5 minutes, and then the fluorescent image was measured. After completion of each experiment, in order to determine whether the measured sample was a plaque area or non-plaque area, the sample was stained with Sudan III and observed. […]

C[C@H](O)[C@H](O)C1CNc2nc(N)[nH]c(=O)c2N1 (stereo partly drawn) [(6R, S)-5,6,7,8-tetrahydrobiopterin]
toxicity [1]: weak

C[C@H](O)[C@H](O)[C@H]1CNc2[nH]c(N)nc(=O)c2N1.Cl.Cl [BH4 dihydrochloride]
acute toxicity [2]: ≥ 2 g/kg (body weight) | toxicity (in words) [2]: almost no toxicity is found

CC(O)C(O)C1CNc2nc(N)[nH]c(=O)c2N1 [BH4, (6R)-L-erythro-5,6,7,8-tetrahydrobiopterin]
production of superoxide in plaque area [3]: significantly reduced | arteriosclerosis (ApoE-KO/eNOS-Tg mice): suppressed | lesion area (lesion area/total area of aorta) (ApoE-KO/eNOS-Tg mice; vs non-administration group, p<0.05 male, p<0.01 female): reduced | production of NO in non-plaque area [4]: significantly increased
